SMILES strings stand for the structures.

Chain of STING (Q86WV6 whole entry R71H/G230A/H232R/R293Q): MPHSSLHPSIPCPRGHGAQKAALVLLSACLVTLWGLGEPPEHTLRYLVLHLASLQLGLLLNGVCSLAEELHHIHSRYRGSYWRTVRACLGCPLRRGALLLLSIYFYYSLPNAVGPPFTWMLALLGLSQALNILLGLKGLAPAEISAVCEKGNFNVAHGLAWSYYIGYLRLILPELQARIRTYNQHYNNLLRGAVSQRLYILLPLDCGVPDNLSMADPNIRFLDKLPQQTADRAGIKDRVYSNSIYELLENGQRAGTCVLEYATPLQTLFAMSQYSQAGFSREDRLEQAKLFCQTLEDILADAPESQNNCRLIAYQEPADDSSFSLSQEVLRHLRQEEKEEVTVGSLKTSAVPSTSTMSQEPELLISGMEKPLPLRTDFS

The target of the first assay is STING (Homo sapiens, UniProt Q86WV6, G230A/H232R/R293Q/R71H). Put plainly: STING reporter assay: THP1-Dual KO-IFNAR2 cells stimulated with 2′3′cGAMP, luciferase reporter activity. In kind it is cell-based. The settings on record: 15 μM 2′3′cGAMP, 24h, class symbols. Put shortly:
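THP1-Dual KO-IFNAR2 cells (2×10E6 cells/mL) treated with compounds at 0.0017-100 μM, then stimulated with 2′3′cGAMP (15 μM final) delivered by Lipofectamine 2000; 24 h at 37° C. Supernatant luciferase read by QUANTI-Luc Plus luminescence; EC50 from dose-response.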
A general note: Reporter assays use an easily measured gene product as a stand-in for the process of interest.
The term EC50 denotes the midpoint of the concentration-response curve. Read a low EC50 as higher potency in that assay. As for `c1cc2ccc(Nc3ccc4ccc(C5CCC5)cc4n3)cc2[nH]1` [Compound 386], the half-maximal effective concentration (EC50) was 1 to 5 µM.

With `O=C(NCc1cc(Cl)cc(C(F)(F)F)c1)Nc1ccc2[nH]ccc2c1` [Compound 318], the EC50 fell in the range of 5 to 100 µM.

With `Clc1cc(Cl)c2ccc(Nc3ccc4cc[nH]c4c3)nc2c1` [Compound 577, 5,7-dichloro-N-(1H-indol-6-yl)quinolin-2-amine], the concentration for a half-maximal effect (EC50) was in the range of 0.2 to 1 µM.

In the case of `FC(F)c1ccc2ccc(Nc3ccc4cc[nH]c4c3)nc2c1` [Compound 586, 7-(difluoromethyl)-N-(1H-indol-6-yl)quinolin-2-amine], the EC50 is 1 to 5 µM.

Regarding `O=C(Nc1ccc(C(F)(F)F)c(Cl)c1)Nc1ccc2cc[nH]c2c1` [Compound 244], the EC50 is 0.2 to 1 µM.

For the compound `CCCCc1ccc(NC(=O)Nc2ccc3cc[nH]c3c2)cc1` [Compound 273], the EC50 is 0.2 to 1 µM.

In turn, `O=C(Nc1ccc2cc[nH]c2c1)N[C@@H]1C[C@H]1c1ccccc1` [Compound 214] came in with an EC50 of 1 to 5 µM.

`CC(C)(C)c1ccnc(Nc2ccc3cc[nH]c3c2)c1` [Compound 402, N-(4-(tert-butyl)pyridin-2-yl)-1H-indol-6-amine] showed an EC50 of 5 to 100 µM.

With `Fc1cc2ccc(Nc3ccc4cc[nH]c4c3)nc2cc1C(F)(F)F` [Compound 551], the EC50 lay within 0.2 to 1 µM.

Compound `O=C(Nc1cccc(S(F)(F)(F)(F)F)c1)Nc1ccc2cc[nH]c2c1` [Compound 233] displayed an EC50 of 0.2 to 1 µM.

For the compound `CN(C)S(=O)(=O)c1ccc(NC(=O)Nc2ccc3cc[nH]c3c2)cc1` [Compound 202], the EC50 was 5 to 100 µM.

The compound `O=C(Nc1cc(Cl)c2cc[nH]c2c1)NC1CCC2(CCCCC2)CC1` [Compound 542] yielded a 50% effective concentration (EC50) of 0.2 to 1 µM.

In the case of `FC(F)(F)c1ccc2ncc(Nc3ccc4cc[nH]c4c3)nc2c1` [Compound 555], the EC50 lay within 1 to 5 µM.

Take `O=C(Nc1cccc(C(F)(F)F)c1)Nc1cc(CCO)c2cc[nH]c2c1` [Compound 509, 1-(4-(2-hydroxyethyl)-1H-indol-6-yl)-3-(3-(trifluoromethyl)phenyl)urea]: the 50% effective concentration (EC50) was 1 to 5 µM.

With `COc1cc(NC(=O)NCc2cc(Cl)cc(C(F)(F)F)c2)cc2[nH]ccc12` [Compound 503], the EC50 is 0.2 to 1 µM.

Consider `FC(F)(F)Oc1ccc(Nc2ccc3cc[nH]c3c2)nc1` [Compound 403, N-(5-(trifluoromethoxy)pyridin-2-yl)-1H-indol-6-amine], for which the concentration for a half-maximal effect (EC50) fell in the range of 5 to 100 µM.

Turning to `FC(F)(F)c1ccc2ccc(Nc3ccc4cc[nH]c4c3)cc2n1` [Compound 579], the half-maximal effective concentration (EC50) lay within 1 to 5 µM.

Consider `CN(C)S(=O)(=O)c1cccc(NC(=O)Nc2ccc3cc[nH]c3c2)c1` [Compound 198], for which the EC50 is 5 to 100 µM.

Regarding `Cc1ccccc1CNC(=O)Nc1ccc2cc[nH]c2c1` [Compound 224], the half-maximal effective concentration (EC50) fell in the range of 1 to 5 µM.

`O=C(Nc1ccc(C(F)(F)F)cc1)Nc1cc(Br)c2cc[nH]c2c1` [Compound 155] gave a concentration giving a half-maximal response (EC50) of 0.04 to 0.2 µM.

Turning to `FC(F)(F)c1ccc2ccc(Nc3cc(Cl)c4cc[nH]c4c3)nc2c1` [Compound 604], the 50% effective concentration (EC50) lay within 0.2 to 1 µM.

Take `O=C(NCc1ccc(C(F)(F)F)c(Cl)c1)Nc1ccc2cc[nH]c2c1` [Compound 206]: the 50% effective concentration (EC50) was 1 to 5 µM.

For the compound `c1ccc(-c2ccnc(Nc3ccc4cc[nH]c4c3)c2)cc1` [Compound 401, N-(4-phenylpyridin-2-yl)-1H-indol-6-amine], the EC50 lay in the range of 1 to 5 µM.

Compound `O=C(Nc1ccc(C(F)(F)F)cc1)Nc1ccc2[nH]cc(NC(=O)Nc3ccc(C(F)(F)F)cc3)c2c1` [Compound 371] showed a 50% effective concentration (EC50) of 0.2 to 1 µM.

Compound `CC(C)(C)c1ccc(Nc2ccc3cc[nH]c3c2)nc1` [Compound 426, N-(5-(tert-butyl)pyridin-2-yl)-1H-indol-6-amine] yielded an EC50 of 5 to 100 µM.

As to `O=c1c(Nc2ccc(C(F)(F)F)cc2)c(Nc2ccc3cc[nH]c3c2)c1=O` [Compound 620], the EC50 lay in the range of 1 to 5 µM.

`Cc1cc2ccc(C(F)(F)F)cc2nc1Nc1ccc2cc[nH]c2c1` [Compound 565]: the half-maximal effective concentration (EC50) was in the range of 0.2 to 1 µM.

In turn, `c1cnc2nc(Nc3ccc4ccn(-c5ccc6cccnc6n5)c4c3)ccc2c1` [Compound 560, N-[1-(1,8-naphthyridin-2-yl)-1H-indol-6-yl]-1,8-naphthyridin-2-amine] displayed an EC50 of 1 to 5 µM.

The compound `[N-]=[N+]=Nc1ccc(NC(=O)Nc2ccc3cc[nH]c3c2)cc1` [Compound 510, 1-(4-azidophenyl)-3-(1H-indol-6-yl)urea] displayed a concentration giving a half-maximal response (EC50) of 1 to 5 µM.

Take `O=C(Nc1cccc(C(F)(F)F)c1)Nc1ccc2[nH]ccc2c1` [Compound 374]: the EC50 is 5 to 100 µM.

Compound `O=C(Nc1ccc(S(=O)(=O)C(F)(F)F)cc1)Nc1ccc2cc[nH]c2c1` [Compound 200] had an EC50 of 0.2 to 1 µM.

For `O=C(Nc1ccc(N2CCC(F)(F)CC2)nc1)Nc1ccc2cc[nH]c2c1` [Compound 247], the EC50 fell in the range of 1 to 5 µM.

`O=C(Nc1ccc(F)c(F)c1)Nc1ccc2cc[nH]c2c1` [Compound 164] registered a concentration giving a half-maximal response (EC50) of 0.2 to 1 µM.

The compound `O=C(Nc1ccnc(C(F)(F)F)c1)Nc1ccc2cc[nH]c2c1` [Compound 250] came in with an EC50 of 1 to 5 µM.

Turning to `CC(C)c1cccc(Nc2ccc3cc[nH]c3c2)n1` [Compound 406, N-(6-isopropylpyridin-2-yl)-1H-indol-6-amine], the EC50 is 5 to 100 µM.

The compound `CC(=O)n1ccc2ccc(NC(=O)Nc3ccc(C(F)(F)F)cc3)cc21` [Compound 257] came in with a concentration for a half-maximal effect (EC50) of 1 to 5 µM.

Regarding `O=C(NCc1cc(Cl)cc(C(F)(F)F)c1)Nc1ccc2cc[nH]c2c1` [Compound 205], the EC50 lay in the range of 0.2 to 1 µM.

In turn, `C[C@H](NC(=O)Nc1cc(Cl)c2cc[nH]c2c1)c1cc(Cl)cc(C(F)(F)F)c1` (single isomer, unassigned) [Compound 520] showed an EC50 of 0.2 to 1 µM.

The same assay, now with this note: 15 μM 2′3′cGAMP, 24h, numeric bounds.
Take `O=C(Nc1ccc2[nH]ccc2c1)Nc1cc2ccc(C(F)(F)F)cn2n1` [Compound 299]: the EC50 is > 30 µM.

With `Cc1cc(C)nc(NC(=O)Nc2ccc3[nH]ccc3c2)c1` [Compound 335], the 50% effective concentration (EC50) was > 30 µM.

`CC(C)c1ccnc(Nc2ccc3cc[nH]c3c2)c1` [Compound 393, N-(4-isopropylpyridin-2-yl)-1H-indol-6-amine]: the 50% effective concentration (EC50) is > 30 µM.

For `COc1ccc(Nc2ccc3cc[nH]c3c2)nc1F` [Compound 601, N-(6-fluoro-5-methoxypyridin-2-yl)-1H-indol-6-amine], the half-maximal effective concentration (EC50) is > 30 µM.

On to `Cc1cc(CNC(=O)Nc2ccc3cc[nH]c3c2)nn1C` [Compound 185], for which the 50% effective concentration (EC50) is > 30 µM.

For the compound `Cc1c(NC(=O)Nc2ccc(C(F)(F)F)cc2)ccc2cc[nH]c12` [Compound 259], the EC50 is > 30 µM.

In the case of `O=C(NCCOc1cccc(Br)c1)Nc1ccc2[nH]ccc2c1` [Compound 295], the 50% effective concentration (EC50) is > 30 µM.

Take `O=C(NCCc1cccc(Cl)c1)Nc1ccc2[nH]ccc2c1` [Compound 354]: the EC50 was > 30 µM.

On to `O=C(Nc1ccc2nc(C(F)(F)F)ccc2c1)Nc1ccc2[nH]ccc2c1` [Compound 287], for which the EC50 was > 30 µM.

Regarding `N#Cc1c[nH]c2cc(NC(=O)NCc3cc(Cl)cc(C(F)(F)F)c3)ccc12` [Compound 532], the EC50 was > 30 µM.

For `c1cc2ccc(Nc3ccc4c(cnn4C4CCCCO4)n3)cc2[nH]1` (centres unmarked) [Compound 600, N-[1-(oxan-2-yl)-1H-pyrazolo[4,3-b]pyridin-5-yl]-1H-indol-6-amine], the EC50 was > 30 µM.

Consider `O=C(Nc1ccc2c(c1)CCC2)Nc1ccc2[nH]ccc2c1` [Compound 359], for which the 50% effective concentration (EC50) was > 30 µM.

On to `O=C(NCc1ccc(Cl)c(C(F)(F)F)c1)Nc1ccc2[nH]ccc2c1` [Compound 320], for which the EC50 is > 30 µM.

For the compound `CCCCC1CCC(NC(=O)Nc2ccc3[nH]c(C)cc3c2)CC1` (centres unmarked) [Compound 375], the EC50 was > 100 µM.

As for `COc1ccc(Nc2ccc3cc[nH]c3c2)nc1C` [Compound 599, N-(5-methoxy-6-methylpyridin-2-yl)-1H-indol-6-amine], the half-maximal effective concentration (EC50) was > 30 µM.

For the compound `O=C(NCCc1ncc(C(F)(F)F)cc1Cl)Nc1ccc2[nH]ccc2c1` [Compound 290], the concentration for a half-maximal effect (EC50) was > 30 µM.

In the case of `O=C(Nc1cnc2ccc(C(F)(F)F)cc2c1)Nc1ccc2[nH]ccc2c1` [Compound 286], the concentration giving a half-maximal response (EC50) is > 30 µM.

Take `CC(C)(C)n1cc(NC(=O)Nc2ccc3[nH]ccc3c2)cn1` [Compound 332]: the 50% effective concentration (EC50) was > 30 µM.

Consider `O=C(NCCc1ccc(OC(F)(F)F)cc1)Nc1ccc2[nH]ccc2c1` [Compound 321], for which the EC50 was > 30 µM.

`Cn1cc(-n2cc(C#N)c3ccc(NC(=O)Nc4ccc(C(F)(F)F)cc4)cc32)cn1` [Compound 544]: the EC50 was > 30 µM.

Turning to `N#Cc1cc(F)cc(NC(=O)Nc2ccc3cc[nH]c3c2)c1` [Compound 193], the concentration giving a half-maximal response (EC50) was > 30 µM.

As for `Cc1nc(Nc2ccc3ccn(-c4ccc(OC(C)C)c(C)n4)c3c2)ccc1OC(C)C` [Compound 569, N,1-bis[6-methyl-5-(propan-2-yloxy)pyridin-2-yl]-1H-indol-6-amine], the concentration for a half-maximal effect (EC50) is > 30 µM.

As to `COc1nc(Nc2ccc3cc[nH]c3c2)ccc1CO` [Compound 561, {6-[(1H-indol-6-yl)amino]-2-methoxypyridin-3-yl}methanol], the EC50 is > 30 µM.

Turning to `O=C(Nc1ccc(C(F)(F)F)cc1)Nc1cc(CO)c2cc[nH]c2c1` [Compound 157], the concentration giving a half-maximal response (EC50) was > 30 µM.

For the compound `O=C(Nc1ccc(Oc2c(F)cccc2F)cc1)Nc1ccc2[nH]ccc2c1` [Compound 278], the EC50 is > 30 µM.

Take `CCCCC1CCC(NC(=O)Nc2ccc3cc(C)[nH]c3c2)CC1` (centres unmarked) [Compound 266]: the EC50 is > 100 µM.

As to `c1cc2ccnc(Nc3ccc4cc[nH]c4c3)c2cn1` [Compound 415, N-(1H-indol-6-yl)-2,7-naphthyridin-1-amine], the 50% effective concentration (EC50) is > 30 µM.

With `O=C(NCc1ccc(F)c(F)c1)Nc1ccc2cc[nH]c2c1` [Compound 221], the EC50 was > 30 µM.

Take `Cc1cc(CNC(=O)Nc2ccc3[nH]ccc3c2)nn1C` [Compound 322]: the half-maximal effective concentration (EC50) is > 30 µM.

For `O=C(Nc1ccc(Cl)c(F)c1)Nc1ccc2[nH]ccc2c1` [Compound 341], the concentration giving a half-maximal response (EC50) was > 30 µM.
